According to article PMC10104807, “Modulation of tau tubulin kinases (TTBK1 and TTBK2) impacts ciliogenesis” (Scientific Reports, 2023):

What was measured:
Test in all cases: Eurofins enzymatic radiometric kinase assay
Assay type in all cases: biochemical
Details in all cases: ATP at Km, duplicate
TSSK2 = biological target: T1, TSSK2 (Homo sapiens, UniProt Q96PF2)
T1 construct: purchased Eurofins (radiometric) / Eurofins DiscoverX scanMAX / Reaction Biology / SignalChem
T1 sequence (Q96PF2 1-358): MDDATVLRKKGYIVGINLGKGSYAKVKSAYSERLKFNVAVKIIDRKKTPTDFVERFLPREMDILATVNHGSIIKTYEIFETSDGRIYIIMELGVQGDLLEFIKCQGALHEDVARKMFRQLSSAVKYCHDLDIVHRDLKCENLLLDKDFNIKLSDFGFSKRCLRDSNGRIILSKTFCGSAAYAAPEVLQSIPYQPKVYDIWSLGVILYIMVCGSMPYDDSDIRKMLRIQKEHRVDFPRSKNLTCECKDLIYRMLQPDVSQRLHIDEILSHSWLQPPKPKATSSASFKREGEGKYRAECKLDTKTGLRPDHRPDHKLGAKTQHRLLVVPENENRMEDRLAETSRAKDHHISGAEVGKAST
Procedure: (§1) The column labeled “# < 10 PoC in enzyme panel” in Table 1 reports the number of kinases in this 17-member panel inhibited > 90% by each analog.
(§2) Details about the substrate used, protein constructs, controls, and assay protocol for these kinase assays are available at the Eurofins website: https://www.eurofinsdiscoveryservices.com. Reaction Biology Corp. (RBC) radiometric HotSpot kinase assays were carried out at the Km value for ATP in dose–response (10-pt curve) format for MYLK4, RIPK5, and YSK4 in Table S2. Details about the substrate used, protein constructs, controls, and assay protocol for these kinase assays are available at the RBC website: https://www.reactionbiology.com/list-kinase-targets-us-facility. SignalChem developed an ADP-Glo assay to test for enzymatic inhibition of PIKfyve in dose–response (10-pt curve) format in duplicate.

TAOK3 = biological target: T2, TAOK3 (Homo sapiens, UniProt Q9H2K8)
T2 construct: purchased Eurofins (radiometric) / Eurofins DiscoverX scanMAX / Reaction Biology / SignalChem
T2 sequence (Q9H2K8 1-898): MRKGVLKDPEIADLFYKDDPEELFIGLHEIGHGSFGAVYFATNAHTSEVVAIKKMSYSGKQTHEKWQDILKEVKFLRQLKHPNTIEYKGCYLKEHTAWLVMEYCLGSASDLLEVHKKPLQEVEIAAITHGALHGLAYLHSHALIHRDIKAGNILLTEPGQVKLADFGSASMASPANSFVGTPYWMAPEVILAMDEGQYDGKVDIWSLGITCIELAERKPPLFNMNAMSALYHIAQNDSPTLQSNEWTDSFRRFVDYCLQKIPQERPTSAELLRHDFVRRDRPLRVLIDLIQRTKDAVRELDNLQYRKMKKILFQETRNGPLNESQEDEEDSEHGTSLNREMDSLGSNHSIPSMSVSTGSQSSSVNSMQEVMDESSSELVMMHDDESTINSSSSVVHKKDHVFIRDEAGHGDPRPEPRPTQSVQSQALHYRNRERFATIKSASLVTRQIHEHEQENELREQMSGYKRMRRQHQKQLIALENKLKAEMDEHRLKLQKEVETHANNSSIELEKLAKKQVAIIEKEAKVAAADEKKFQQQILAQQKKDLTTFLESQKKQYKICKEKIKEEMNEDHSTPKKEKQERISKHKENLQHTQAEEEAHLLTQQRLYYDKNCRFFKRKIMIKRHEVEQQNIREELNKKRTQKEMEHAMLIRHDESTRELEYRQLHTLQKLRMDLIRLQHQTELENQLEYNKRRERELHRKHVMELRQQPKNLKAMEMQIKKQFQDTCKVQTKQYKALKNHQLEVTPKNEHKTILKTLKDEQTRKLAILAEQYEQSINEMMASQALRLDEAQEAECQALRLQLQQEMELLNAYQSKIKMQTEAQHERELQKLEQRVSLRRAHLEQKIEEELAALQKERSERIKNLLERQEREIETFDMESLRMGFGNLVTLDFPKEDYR
Procedure: as §1, §2

PAK3 = biological target: T3, PAK3 (Homo sapiens, UniProt O75914)
T3 construct: purchased Eurofins (radiometric) / Eurofins DiscoverX scanMAX / Reaction Biology / SignalChem
T3 sequence (O75914 whole entry): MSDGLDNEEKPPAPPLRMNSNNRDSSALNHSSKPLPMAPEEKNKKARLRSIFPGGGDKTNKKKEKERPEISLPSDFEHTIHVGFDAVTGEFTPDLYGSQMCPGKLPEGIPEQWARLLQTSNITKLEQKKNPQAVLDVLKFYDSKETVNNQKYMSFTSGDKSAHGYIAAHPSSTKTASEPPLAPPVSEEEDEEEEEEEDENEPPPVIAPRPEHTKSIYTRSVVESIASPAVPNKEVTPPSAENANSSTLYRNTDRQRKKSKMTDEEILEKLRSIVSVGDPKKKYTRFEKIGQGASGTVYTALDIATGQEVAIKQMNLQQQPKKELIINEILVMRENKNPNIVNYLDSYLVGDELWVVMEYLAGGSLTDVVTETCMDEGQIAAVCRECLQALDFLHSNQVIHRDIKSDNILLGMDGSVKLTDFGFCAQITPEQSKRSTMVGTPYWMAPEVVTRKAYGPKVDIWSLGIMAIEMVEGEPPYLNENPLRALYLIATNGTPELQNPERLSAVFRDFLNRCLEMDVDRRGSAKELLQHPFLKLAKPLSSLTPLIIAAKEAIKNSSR
Procedure: as §1, §2

PAK5 = biological target: T4, PAK5 (Homo sapiens, UniProt Q9P286)
T4 construct: purchased Eurofins (radiometric) / Eurofins DiscoverX scanMAX / Reaction Biology / SignalChem
T4 sequence (Q9P286 whole entry): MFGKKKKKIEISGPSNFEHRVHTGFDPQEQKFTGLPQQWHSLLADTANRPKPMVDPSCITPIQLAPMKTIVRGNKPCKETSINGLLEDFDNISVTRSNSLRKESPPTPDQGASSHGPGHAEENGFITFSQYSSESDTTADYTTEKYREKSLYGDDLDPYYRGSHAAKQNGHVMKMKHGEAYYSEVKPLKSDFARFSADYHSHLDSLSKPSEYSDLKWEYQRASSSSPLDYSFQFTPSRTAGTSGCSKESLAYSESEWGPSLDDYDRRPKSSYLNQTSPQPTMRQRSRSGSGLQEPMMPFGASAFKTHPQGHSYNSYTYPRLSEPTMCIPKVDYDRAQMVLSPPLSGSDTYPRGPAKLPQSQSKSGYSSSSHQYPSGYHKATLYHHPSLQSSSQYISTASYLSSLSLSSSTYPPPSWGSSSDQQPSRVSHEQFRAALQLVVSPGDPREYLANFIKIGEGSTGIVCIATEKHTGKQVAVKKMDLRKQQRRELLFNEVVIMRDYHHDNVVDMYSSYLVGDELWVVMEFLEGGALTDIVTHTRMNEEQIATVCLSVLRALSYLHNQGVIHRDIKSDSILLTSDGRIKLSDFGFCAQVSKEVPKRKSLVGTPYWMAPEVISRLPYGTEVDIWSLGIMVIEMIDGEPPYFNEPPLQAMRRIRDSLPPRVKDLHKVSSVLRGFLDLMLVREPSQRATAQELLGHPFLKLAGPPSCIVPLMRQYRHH
Procedure: as §1, §2

MAP4K5 = biological target: T5, MAP4K5 (Homo sapiens, UniProt Q9Y4K4)
T5 construct: purchased Eurofins
T5 sequence (Q9Y4K4 whole entry): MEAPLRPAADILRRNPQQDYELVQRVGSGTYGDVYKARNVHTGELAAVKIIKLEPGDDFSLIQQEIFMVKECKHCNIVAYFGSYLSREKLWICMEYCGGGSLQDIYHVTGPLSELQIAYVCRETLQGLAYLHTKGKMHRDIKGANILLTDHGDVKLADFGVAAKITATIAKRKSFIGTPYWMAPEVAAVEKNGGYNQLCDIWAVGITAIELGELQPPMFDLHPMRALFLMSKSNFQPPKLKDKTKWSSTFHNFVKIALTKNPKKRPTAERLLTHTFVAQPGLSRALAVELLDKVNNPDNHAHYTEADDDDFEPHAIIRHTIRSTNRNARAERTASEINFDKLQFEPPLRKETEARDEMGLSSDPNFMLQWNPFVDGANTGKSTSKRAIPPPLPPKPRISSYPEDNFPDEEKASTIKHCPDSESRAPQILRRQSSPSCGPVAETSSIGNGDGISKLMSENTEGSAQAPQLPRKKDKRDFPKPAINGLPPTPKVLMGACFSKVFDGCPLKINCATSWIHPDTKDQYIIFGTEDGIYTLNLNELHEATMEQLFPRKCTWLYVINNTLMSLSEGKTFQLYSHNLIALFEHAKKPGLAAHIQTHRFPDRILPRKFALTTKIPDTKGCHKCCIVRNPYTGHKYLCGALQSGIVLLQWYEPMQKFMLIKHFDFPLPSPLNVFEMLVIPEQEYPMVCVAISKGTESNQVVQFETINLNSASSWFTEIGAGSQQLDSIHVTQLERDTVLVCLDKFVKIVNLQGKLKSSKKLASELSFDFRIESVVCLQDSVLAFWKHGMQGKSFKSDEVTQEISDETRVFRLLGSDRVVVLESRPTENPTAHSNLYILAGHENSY
Procedure: as §1, §2

TAOK1 = biological target: T6, TAOK1 (Homo sapiens, UniProt Q7L7X3)
T6 construct: purchased Eurofins
T6 sequence (Q7L7X3 1-1001): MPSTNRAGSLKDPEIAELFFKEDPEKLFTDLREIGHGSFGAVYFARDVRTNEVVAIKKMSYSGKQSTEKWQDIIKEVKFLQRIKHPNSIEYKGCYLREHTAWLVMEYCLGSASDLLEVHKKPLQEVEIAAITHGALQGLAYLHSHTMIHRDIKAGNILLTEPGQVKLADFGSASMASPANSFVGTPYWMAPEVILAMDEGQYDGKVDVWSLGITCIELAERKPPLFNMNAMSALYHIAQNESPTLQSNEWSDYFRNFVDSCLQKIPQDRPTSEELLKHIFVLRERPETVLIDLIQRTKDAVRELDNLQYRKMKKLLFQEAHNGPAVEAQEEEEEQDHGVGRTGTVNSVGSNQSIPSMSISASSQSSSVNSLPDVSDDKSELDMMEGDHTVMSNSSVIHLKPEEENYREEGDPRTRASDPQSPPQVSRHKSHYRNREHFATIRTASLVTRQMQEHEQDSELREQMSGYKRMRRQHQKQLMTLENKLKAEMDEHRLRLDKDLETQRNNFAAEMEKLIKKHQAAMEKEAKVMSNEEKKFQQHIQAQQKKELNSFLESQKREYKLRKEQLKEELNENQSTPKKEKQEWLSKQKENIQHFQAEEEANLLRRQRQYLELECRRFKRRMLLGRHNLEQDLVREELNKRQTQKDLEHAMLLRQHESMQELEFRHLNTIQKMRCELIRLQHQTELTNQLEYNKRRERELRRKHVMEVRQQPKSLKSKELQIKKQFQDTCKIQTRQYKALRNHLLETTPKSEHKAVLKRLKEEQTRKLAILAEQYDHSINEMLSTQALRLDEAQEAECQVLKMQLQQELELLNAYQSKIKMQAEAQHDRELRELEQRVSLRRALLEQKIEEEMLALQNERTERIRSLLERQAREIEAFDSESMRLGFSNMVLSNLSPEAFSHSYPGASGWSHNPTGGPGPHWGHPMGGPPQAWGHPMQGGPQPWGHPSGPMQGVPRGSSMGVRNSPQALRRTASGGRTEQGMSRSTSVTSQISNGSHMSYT
Procedure: as §1, §2

Row | SMILES | TSSK2 PoC at 1 μM (TSSK2) [PoC] | TAOK3 PoC at 1 μM (TAOK3) [PoC] | PAK3 PoC at 1 μM (PAK3) [PoC] | PAK5 PoC at 1 μM (PAK5) [PoC] | MAP4K5 PoC at 1 μM (MAP4K5) [PoC] | TAOK1 PoC at 1 μM (TAOK1) [PoC]
1 | CC(C)(O)C#Cc1ccc2[nH]c3c(c2c1)-c1nc(N)ncc1CCC3 [AMG28, reference compound] | 57 | 9 | 86 | 3 | 1 | 2
2 | CC(C)(O)C#Cc1ccc2[nH]cc(-c3ccnc(N)n3)c2c1 [Compound 3] | 78 | 20 | 104 | 31 | 1 | 7
3 | CC(C)(O)C#Cc1ccc2[nH]c3c(c2c1)-c1nc(N)ncc1CCCC3 [Compound 2] | 76 | 78 | 100 | 87 | 9 | 65
4 | CC(C)(O)C#Cc1ccc2[nH]c3c(c2c1)-c1nc(N)ncc1CC3 [Compound 1] | 88 | 11 | 86 | 48 | 3 | 5
5 | COC(C)(C)C#Cc1ccc2[nH]c3c(c2c1)-c1nc(N)ncc1CCC3 [Compound 11] | 86 | 89 | 100 | 88 | 9 | 73
